From publication PMC13608006 (Journal of medicinal chemistry, 2018)

Assays:
CVB3-H3-C179F = assay type: cell-based, coxsackievirus B3
EV-A71 = assay: antiviral CPE assay, anti-EV-A71 in LLC cells; assay type: cell-based, enterovirus 71 (EV-A71); details: SI50 = CC50/EC50
PV-1 = assay type: cell-based, poliovirus-1; details: SI50 = CC50/EC50
CV-B3 (CVB3-H3) = assay type: cell-based, coxsackievirus B3; details: SI50 = CC50/EC50
in vitro = details: human

| SMILES | inhibition of CVB3-H3-C179F (missense mutation in the 2C coding domain) (CVB3-H3-C179F) | SI50 (EV-A71 in LLC cells) (EV-A71) | SI50 (PV-1 in HeLa cells) (PV-1) | SI50 (CV-B3 in HeLa cells) (CV-B3 (CVB3-H3)) | CC50 (in vitro) | CC50 (in vitro; CC50 (anti-PV-1 in HeLa cells column)) |
| --- | --- | --- | --- | --- | --- | --- |
| CC(C)n1ncc2c(C(=O)Nc3ccccc3F)cc(-c3cccs3)nc21 [JX001, N-(2-Fluorophenyl)-1-isopropyl-6-(thiophen-2-yl)-1H-pyrazolo[3,4-b]pyridine-4-carboxamide] | resistant | SI50: 21.7 | SI50: 1.8 | SI50: 8.9 |  |  |
| CC(C)n1ncc2c(C(=O)Nc3cc(S(N)(=O)=O)ccc3F)cc(-c3cccs3)nc21 [JX068, N-(2-Fluoro-5-sulfamoylphenyl)-1-isopropyl-6-(thiophen-2-yl)-1H-pyrazolo[3,4-b]pyridine-4-carboxamide] |  | SI50: 50.0 | SI50: 2.9 | SI50: 25.7 |  |  |
| CC(C)n1ncc2c(C(=O)Nc3cncnc3)cc(-c3cccs3)nc21 [JX066, 1-Isopropyl-N-(pyrimidin-5-yl)-6-(thiophen-2-yl)-1H-pyrazolo[3,4-b]pyridine-4-carboxamide] |  | SI50: 50.0 | SI50: 1.8 | SI50: 25.7 |  |  |
| CC(C)n1ncc2c(C(=O)Nc3cc(C(N)=O)ccc3F)cc(-c3cccs3)nc21 [JX073, N-(5-Carbamoyl-2-fluorophenyl)-1-isopropyl-6-(thiophen-2-yl)-1H-pyrazolo[3,4-b]pyridine-4-carboxamide] |  | SI50: 50.0 | SI50: 3.8 | SI50: 23.5 |  |  |
| CC(C)n1ncc2c(C(=O)Nc3cccnc3)cc(-c3cccs3)nc21 [JX056, 1-Isopropyl-N-(pyridin-3-yl)-6-(thiophen-2-yl)-1H-pyrazolo-[3,4-b]pyridine-4-carboxamide] |  | SI50: >400.0 | SI50: 2.5 | SI50: 62.5 |  |  |
| CC(C)n1ncc2c(C(=O)Nc3cccc(S(N)(=O)=O)c3)cc(-c3cccs3)nc21 [JX025, 1-Isopropyl-N-(3-sulfamoylphenyl)-6-(thiophen-2-yl)-1H-pyrazolo[3,4-b]pyridine-4-carboxamide] |  | SI50: 19.2 | SI50: 10.0 |  | > 200 µM | 50 µM |
| CC(C)n1ncc2c(C(=O)Nc3cccc(S(=O)(=O)N(C)C)c3)cc(-c3cccs3)nc21 [JX052, N-(3-(N,N-Dimethylsulfamoyl)phenyl)-1-isopropyl-6-(thiophen-2-yl)-1H-pyrazolo[3,4-b]pyridine-4-carboxamide] |  | SI50: >250.0 |  | SI50: 12.0 |  |  |
| CC(C)n1ncc2c(C(=O)Nc3cccc(C(N)=O)c3)cc(-c3cccs3)nc21 [JX064, N-(3-Carbamoylphenyl)-1-isopropyl-6-(thiophen-2-yl)-1H-pyrazolo[3,4-b]pyridine-4-carboxamide] |  | SI50: 31.3 | SI50: 2.9 | SI50: 25.7 |  |  |
| CC(C)n1ncc2c(C(=O)Nc3ccc(F)cn3)cc(-c3cccs3)nc21 [JX075, N-(5-Fluoropyridin-2-yl)-1-isopropyl-6-(thiophen-2-yl)-1H-pyrazolo[3,4-b]pyridine-4-carboxamide] |  | SI50: >166.7 |  | SI50: 53.6 |  |  |
| CC(C)n1ncc2c(C(=O)Nc3cccc(F)c3F)cc(-c3cccs3)nc21 [JX019, N-(2,3-Difluorophenyl)-1-isopropyl-6-(thiophen-2-yl)-1H-pyrazolo[3,4-b]pyridine-4-carboxamide] |  | SI50: 25.0 |  | SI50: >74.1 |  |  |
| CC(C)n1ncc2c(C(=O)Nc3ncccn3)cc(-c3cccs3)nc21 [JX041, 1-Isopropyl-N-(pyrimidin-2-yl)-6-(thiophen-2-yl)-1H-pyrazolo[3,4-b]pyridine-4-carboxamide] |  | SI50: 150.0 |  | SI50: 62.5 |  |  |
| CC(C)n1ncc2c(C(=O)Nc3ccccc3S(N)(=O)=O)cc(-c3cccs3)nc21 [JX033, 1-Isopropyl-N-(2-sulfamoylphenyl)-6-(thiophen-2-yl)-1H-pyrazolo[3,4-b]pyridine-4-carboxamide] |  | SI50: 10.0 |  | SI50: 3.8 |  |  |
| CC(C)n1ncc2c(C(=O)Nc3ccc(F)cc3)cc(-c3cccs3)nc21 [JX017, N-(4-Fluorophenyl)-1-isopropyl-6-(thiophen-2-yl)-1H-pyrazolo[3,4-b]pyridine-4-carboxamide] |  | SI50: >222.2 |  | SI50: >285.7 |  |  |
| CC(C)n1ncc2c(C(=O)Nc3ccccn3)cc(-c3cccs3)nc21 [JX040, 1-Isopropyl-N-(pyridin-2-yl)-6-(thiophen-2-yl)-1H-pyrazolo-[3,4-b]pyridine-4-carboxamide] |  | SI50: >400.0 |  | SI50: >250.0 |  |  |
| CC(C)n1ncc2c(C(=O)Nc3ccc(F)cc3)cc(C3CC3)nc21 [JX038, 6-Cyclopropyl-N-(4-fluorophenyl)-1-isopropyl-1H-pyrazolo-[3,4-b]pyridine-4-carboxamide] |  | SI50: 3.9 |  | SI50: 3.0 |  |  |
| CC(C)n1ncc2c(C(=O)Nc3ccc(F)cc3F)cc(-c3cccs3)nc21 [JX008, N-(2,4-Difluorophenyl)-1-isopropyl-6-(thiophen-2-yl)-1H-pyrazolo[3,4-b]pyridine-4-carboxamide] |  | SI50: >125.0 |  | SI50: >142.9 |  |  |
| CC(C)n1ncc2c(C(=O)Nc3ccc(F)cc3)cc(-c3ccsc3)nc21 [JX030, N-(4-Fluorophenyl)-1-isopropyl-6-(thiophen-3-yl)-1H-pyrazolo[3,4-b]pyridine-4-carboxamide] |  | SI50: >142.9 |  | SI50: 19.2 |  |  |
| CC(C)n1ncc2c(C(=O)Nc3cccc(F)c3)cc(-c3cccs3)nc21 [JX021, N-(3-Fluorophenyl)-1-isopropyl-6-(thiophen-2-yl)-1H-pyrazolo[3,4-b]pyridine-4-carboxamide] |  | SI50: >83.3 |  | SI50: >250.0 |  |  |
| CC(C)n1ncc2c(C(=O)Nc3ccc(S(C)(=O)=O)cc3)cc(-c3cccs3)nc21 [JX047, 1-Isopropyl-N-(4-(methylsulfonyl)phenyl)-6-(thiophen-2-yl)-1H-pyrazolo[3,4-b]pyridine-4-carboxamide] |  | SI50: 100.0 |  | SI50: 200.0 |  |  |
| CC(C)n1ncc2c(C(=O)Nc3ccncn3)cc(-c3cccs3)nc21 [JX043, 1-Isopropyl-N-(pyrimidin-4-yl)-6-(thiophen-2-yl)-1H-pyrazolo[3,4-b]pyridine-4-carboxamide] |  | SI50: 100.0 |  | SI50: 33.3 |  |  |
